Measurements reported in US7981457B2, “Taste improving substances” (Quest International B.V. & Quest International Services B.V., priority 2004, dated 2011).

Assay: tasting of LC-MS fractions of the product of Example 1
Format: in vivo
Conditions: fractions of the Example 1 product, content shown by 1H NMR
Protocol: 30 g of ethyl lactate and 10 g of GMP were thoroughly mixed in 90 g of glycerol to obtain a clear solution. The mixture was heated under stirring at 120° C. for 1 hour. A white precipitate was formed at the end of the heating period. The mixture was cooled to 70° C. and 100 g of isopropyl alcohol was added followed by stirring. Next, the mixture was filtered over a glass filter and the filter residue was washed three times with 300 g isopropyl alcohol. Thus, 12 g of an almost white powder was obtained. The main taste components of the obtained product were identified using LC-MS and tasting different fractions.

Molecule	taste of the fractions containing the substance
CC(O)C(=O)Nc1nc2c(ncn2[C@@H]2O[C@H](COP(=O)(O)O)[C@@H](O)[C@H]2O)c(=O)[nH]1 (some centres unmarked) [N-lactoyl GMP]	“long-lasting” and “kokumi”
O-lactoyl GMP	“long-lasting” and “kokumi”
